Data as given in ChEMBL document CHEMBL5252631, “A pharmacophore-based approach to demonstrating the scope of alcohol dehydrogenases” (Bioorg Med Chem, 2023).

Columns and labels:
[1] = Substrate activity at ADH19 (unknown origin) assessed as specific enzyme activity using NADPH as cofactor at 2.5 to 10 mM measured for 30 mins in presence of Tris HCL buffer by UV-Vis spectroscopy analysis; conditions: Homo sapiens, dose 2.5-10 mM
[2] = Substrate activity at ADH20 (unknown origin) assessed as specific enzyme activity using NADPH as cofactor at 2.5 to 10 mM measured for 30 mins in presence of Tris HCL buffer by UV-Vis spectroscopy analysis; conditions: Homo sapiens, dose 2.5-10 mM
[3] = Substrate activity at ADH61 (unknown origin) assessed as specific enzyme activity using NADPH as cofactor at 2.5 to 10 mM measured for 30 mins in presence of Tris HCL buffer by UV-Vis spectroscopy analysis; conditions: Homo sapiens, dose 2.5-10 mM
[4] = Substrate activity at ADH150 (unknown origin) assessed as specific enzyme activity using NADPH as cofactor at 2.5 to 10 mM measured for 30 mins in presence of Tris HCL buffer by UV-Vis spectroscopy analysis; conditions: Homo sapiens, dose 2.5-10 mM
[5] = Substrate activity at ADH101 (unknown origin) assessed as specific enzyme activity using NADH as cofactor at 2.5 to 10 mM measured for 30 mins in presence of 20% hexane-Tris HCL buffer by UV-Vis spectroscopy analysis; conditions: Homo sapiens, dose 2.5-10 mM
[6] = Substrate activity at ADH105 (unknown origin) assessed as specific enzyme activity using NADH as cofactor at 2.5 to 10 mM measured for 30 mins in presence of 20% hexane-Tris HCL buffer by UV-Vis spectroscopy analysis; conditions: dose 2.5-10 mM
[7] = Substrate activity at ADH101 (unknown origin) assessed as specific enzyme activity using NADH as cofactor at 2.5 to 10 mM measured for 30 mins in presence of Tris HCL buffer by UV-Vis spectroscopy analysis; conditions: dose 2.5-10 mM
[8] = Substrate activity at ADH105 (unknown origin) assessed as specific enzyme activity using NADH as cofactor at 2.5 to 10 mM measured for 30 mins in presence of Tris HCL buffer by UV-Vis spectroscopy analysis; conditions: Homo sapiens, dose 2.5-10 mM

Compound | Activity [1] [nmol/min/mg] | Activity [2] [nmol/min/mg] | Activity [3] [nmol/min/mg] | Activity [4] [nmol/min/mg] | Activity [5] [nmol/min/mg] | Activity [6] [nmol/min/mg] | Activity [7] [nmol/min/mg] | Activity [8] [nmol/min/mg]
CC(=O)c1cc[nH]n1 | 10.3 | 24.1 | 10.7 | 11.8 | 5.6 | 20.7 |  | 
O=C(c1ccccc1)C(F)(F)F |  |  |  |  | 46.2 | 29.4 | 9.22 | 19.1
CCOc1ccc(C(C)=O)cc1 |  |  |  |  | 19.9 | 196 | 4.37 | 81.1
CC(=O)c1cncnc1 |  |  |  |  | 45.2 | 50.5 |  | 
CC(=O)/C=C/c1ccccc1 |  |  |  |  | 67.2 | 62.1 | 60.7 | 6.97
CC(=O)c1ccc(Br)nc1 |  |  |  |  | 33.2 | 269 |  | 
CC(=O)c1ccc(Br)cc1O |  |  |  |  | 10 | 27.2 | 112 | 
COc1cc(C(C)=O)cc(OC)c1OC |  |  |  |  |  | 89.9 | 11.7 | 154
CC(=O)c1cnccn1 |  |  |  |  | 53.2 | 185 |  | 
CC(=O)c1cccnc1 |  |  |  |  | 34 | 163 | 9.45 | 121
COc1ccc2[nH]cc(CCNC(C)=O)c2c1 |  |  |  |  |  | 21.7 |  | 
CC(=O)c1ccc(C(F)(F)F)nc1 |  |  |  |  | 80.9 | 210 |  | 
CC(=O)c1nccn1C |  |  |  |  | 14.7 | 20.7 |  | 
O=C(CBr)c1ccccc1 |  |  |  |  | 89.2 | 337 | 44.6 | 18.7
CC(=O)c1ccc(O)cc1 | 12.8 |  | 12.7 |  |  | 31.5 |  | 39.5
CC(=O)Cc1ccccc1 |  |  |  |  | 22.2 | 239 | 5.98 | 274
CNCC(=O)c1cccc(O)c1 | 6.78 | 67.2 |  | 38.6 | 12.4 | 17.4 |  | 20.8
O=C(c1ccccc1)c1ccccc1 |  | 41.1 |  | 69.9 | 73.9 | 14.3 | 35.7 | 12.8
CC(=O)c1ccc(C[C@H](N)C(=O)O)cc1 | 7.76 | 55.7 | 123 | 33.7 | 10.2 | 62.2 |  | 
CC(=O)c1ccccc1Br |  |  |  |  | 38 | 39.5 | 75.1 | 6.37

Compound | Activity [1] [nmol/min/mg] | Activity [2] [nmol/min/mg] | Activity [3] [nmol/min/mg] | Activity [4] [nmol/min/mg] | Activity [5] [nmol/min/mg] | Activity [6] [nmol/min/mg] | Activity [7] [nmol/min/mg] | Activity [8] [nmol/min/mg]
CC(=O)c1cc(F)ccc1O |  |  |  |  | 42.8 |  |  | 
CCCCCCCCC(C)=O |  |  |  |  | 25.7 | 37.1 | 39.5 | 8.95
CC(=O)c1ccc(Br)c(F)c1 |  |  |  |  | 103 | 242 | 46.3 | 
COc1ccc(C(C)=O)cc1 |  |  |  |  | 24.6 | 221 |  | 
CCc1ccc(OC)c(C(C)=O)c1 |  |  |  |  | 52.9 | 64 | 49.8 | 14.1
CC(=O)c1ccc(Br)cc1 |  |  |  |  | 73.1 | 158 | 38.1 | 56.1
CC(=O)c1cc(C(F)(F)F)cc(C(F)(F)F)c1 |  |  |  |  | 17.4 | 57.3 | 4.51 | 29.6
CC(=O)c1ccc(Cl)nc1 |  |  |  |  | 62.5 | 92 | 32.2 | 371
CC(=O)c1ccc(Br)cc1F |  |  |  |  | 57.7 | 366 | 15.9 | 
CC(=O)c1ccccn1 |  |  |  |  | 35.5 | 60.3 | 22.2 | 70.4
COc1ccccc1C(C)=O |  |  |  |  |  | 83 | 2.46 | 13.4
CC(=O)c1cccc(O)c1 |  |  |  |  | 14.8 | 157 | 4.76 | 82.4
CC(=O)c1ccc(F)nc1 |  |  |  |  | 51 | 137 | 24.7 | 182
O=C1CN2CCC1CC2 |  |  |  |  | 85.3 | 23.4 |  | 13
CC(=O)c1ccc2ccccc2c1 |  |  |  |  | 37 | 54 | 7.68 | 
O=C(CCl)c1ccc(F)c(F)c1 |  |  |  |  | 87.1 | 112 | 83.1 | 131
CC(=O)c1ccc(I)cc1 |  |  |  |  | 51.3 | 117 |  | 
O=c1[nH]c(=O)c2nc[nH]c2[nH]1 |  |  |  |  |  | 15.9 | 319 | 9.28
CC(=O)C1CCCC1 |  |  |  |  | 123 | 218 |  | 
CC(=O)c1ccccc1 |  |  |  |  | 54.1 | 99.1 | 43.1 | 142

Compound | Activity [1] [nmol/min/mg] | Activity [2] [nmol/min/mg] | Activity [3] [nmol/min/mg] | Activity [4] [nmol/min/mg] | Activity [5] [nmol/min/mg] | Activity [6] [nmol/min/mg] | Activity [7] [nmol/min/mg] | Activity [8] [nmol/min/mg]
CC(=O)c1ccc2c(c1)OCO2 |  |  |  |  | 34.2 | 189 | 17.7 | 70.1
CC(=O)C1CCCCC1 |  |  |  |  | 52.3 | 112 | 167 | 233
CC(C)(C)NCC(=O)c1cc(Cl)c(N)c(Cl)c1 | 10.4 | 18.8 | 29 | 6.55 |  | 34.6 |  | 
CC(=O)c1cccc(C#N)c1 |  |  |  |  | 57.4 | 173 |  | 
CC(=O)CCc1ccccc1 |  |  |  |  | 95.7 | 364 | 109 | 
CC(=O)c1ccc(NS(C)(=O)=O)cc1 |  |  |  |  |  | 203 |  | 
COc1ccc(C(C)=O)cc1OC |  |  |  |  | 59.8 | 220 |  | 
COc1ccc2c(c1)CCCC2=O | 14.3 | 31.3 | 56.4 | 7.83 |  | 36 | 6.9 | 9
CC(=O)c1ccc(B2OC(C)(C)C(C)(C)O2)cc1 |  |  |  |  | 465 | 87 |  | 
CC(=O)c1ccc(F)cc1 |  |  |  |  | 22.9 | 122 | 26.4 | 86.4
CC(=O)c1ccc([N+](=O)[O-])cc1 |  |  |  |  | 130 | 593 | 99.9 | 
CC(=O)c1cccc(Br)c1 |  |  |  |  | 12.2 | 142 | 19.9 | 1.9
CC(=O)c1cnc2ccccc2c1 |  |  |  |  | 13.7 | 229 |  | 
CC(=O)C1CC1 |  |  |  |  | 82.8 | 98.2 |  | 
COc1cc(OC)cc(C(C)=O)c1 |  |  |  |  | 59.2 | 363 |  | 
CC(=O)c1ccccc1O |  |  |  |  |  |  | 11.3 | 23.1
COc1cccc(C(C)=O)c1 |  |  |  |  | 13.8 | 397 |  | 
CC(=O)c1ccc(N)cc1 |  |  |  |  | 43.9 | 80.4 | 5.03 | 21.3
